Experimental data from patent US20110230476A1, “PI3 KINASE INHIBITORS AND USES THEREOF” (AVILA THERAPEUTICS, INC., priority 2009, published 2011).

Key:
Phospho-Akt(Ser473) = test: Dose response in SKOV3 cells as determined by in-cell Western; assay type: cell-based; conditions: Homo sapiens, SK-OV-3; SKOV3 cells, 1 hr; read-out: pAKT Inhibition in cell Western
Procedure: Dose Response in SKOV3 Cells as Determined by in-Cell Western
Twenty four hours later the media was removed and replaced with 100 ul media containing test compound or control compound and cells were returned to the incubator for 1 hr. At the end of the hour, the media was removed and the cells were washed once with PBS, then fixed for 20 minutes at room temperature in 4% formaldehyde in PBS. The formaldehyde was removed and cells were washed 5 times for 5 minutes with 100 ul of Permeabilization Buffer (PBS+0.1% Triton X-100) at room temperature with gentle shaking. The last wash was removed and replaced with 150 ul of Odyssey Blocking Buffer (Li-Cor, Lincoln, Nebr.) and incubated for 90 minutes at room temperature with gentle shaking.
The Blocking Buffer was then replaced with 50 ul of primary antibody mix (rabbit anti-Phospho-Akt(Ser473) at 1:100 (Cell Signaling Technology, Boston, Mass.) and mouse anti-tubulin at 1:5000 (Sigma Aldrich, St. Louis, Mo.) diluted in Odyssey Blocking Buffer) and incubated overnight at room temperature with gentle shaking.
The next morning, the antibody mix was removed and the wells were washed 5 times for 5 minutes with PBS+0.1% Tween-20. The last wash was replaced with 50 ul of secondary antibody mix (goat anti-rabbit-IRDye-680 and goat anti-mouse-IRDye-800 (Li-Cor), both diluted 1:1000 in Odyssey Blocking Buffer+0.2% Tween-20) and incubated for 1 hour at room temperature with gentle shaking. The antibody mix was removed and the wells were washed 5 times for 5 minutes in PBS+0.1% Tween-20, then 1 time with ddH2O.
The plates were scanned on an Odyssey machine (Li-Cor) with a 3 mm focus offset at an intensity of 8 in both channels and the data was analyzed using the Odyssey software.

PI3Kα (p110α/p85α) = target: T1, PI3Kα (p110α/p85α) (Homo sapiens, UniProt P42336); test: HTRF assay, potency against active PI3Kα; assay type: biochemical; conditions: HTRF; [ATP]=50 μM, [di-C8-PIP2]=10 μM; 30 min pre-incubation; read-out: PI3Kα Inhibition
T1 construct: purchased BPS Bioscience (San Diego, Calif.) or Millipore (Billerica, Mass.)
In short: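 Active p110/p85α lipid kinase reactions were started with ATP and run 30-60 minutes at 25 °C, then stopped and developed with HTRF detection mix. HTRF ratio converted to % inhibition against ±enzyme controls; IC50 from log[inhibitor] vs response, variable slope.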

T1 sequence (P42336 whole entry): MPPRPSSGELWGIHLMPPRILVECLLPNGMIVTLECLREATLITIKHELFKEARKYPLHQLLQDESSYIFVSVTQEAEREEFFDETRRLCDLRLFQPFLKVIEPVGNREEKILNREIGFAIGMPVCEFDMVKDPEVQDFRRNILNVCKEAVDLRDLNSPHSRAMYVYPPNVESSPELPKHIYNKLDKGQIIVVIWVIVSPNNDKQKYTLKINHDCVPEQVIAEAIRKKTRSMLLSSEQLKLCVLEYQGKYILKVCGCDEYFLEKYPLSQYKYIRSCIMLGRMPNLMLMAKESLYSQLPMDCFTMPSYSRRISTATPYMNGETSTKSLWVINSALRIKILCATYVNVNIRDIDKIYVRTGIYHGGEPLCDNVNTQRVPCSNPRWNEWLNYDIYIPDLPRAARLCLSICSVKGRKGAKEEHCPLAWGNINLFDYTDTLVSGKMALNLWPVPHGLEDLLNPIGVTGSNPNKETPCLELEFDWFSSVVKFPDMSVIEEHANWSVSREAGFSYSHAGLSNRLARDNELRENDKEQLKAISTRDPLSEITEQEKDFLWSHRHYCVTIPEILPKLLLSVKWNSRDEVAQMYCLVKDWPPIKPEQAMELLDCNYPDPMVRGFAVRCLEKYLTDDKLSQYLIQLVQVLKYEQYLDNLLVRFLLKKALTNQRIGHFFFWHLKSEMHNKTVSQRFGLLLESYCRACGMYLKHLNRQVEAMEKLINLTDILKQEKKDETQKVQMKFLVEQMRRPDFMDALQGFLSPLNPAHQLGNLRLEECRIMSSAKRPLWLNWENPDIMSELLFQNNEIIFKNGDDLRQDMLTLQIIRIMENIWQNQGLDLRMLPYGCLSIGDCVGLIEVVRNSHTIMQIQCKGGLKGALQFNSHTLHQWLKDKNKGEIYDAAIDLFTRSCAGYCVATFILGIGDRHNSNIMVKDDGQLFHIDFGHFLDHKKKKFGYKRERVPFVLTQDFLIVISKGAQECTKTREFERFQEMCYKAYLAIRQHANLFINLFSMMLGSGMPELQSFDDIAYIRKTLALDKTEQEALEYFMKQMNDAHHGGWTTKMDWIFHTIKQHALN
T1 sequence (P27986 whole entry partner): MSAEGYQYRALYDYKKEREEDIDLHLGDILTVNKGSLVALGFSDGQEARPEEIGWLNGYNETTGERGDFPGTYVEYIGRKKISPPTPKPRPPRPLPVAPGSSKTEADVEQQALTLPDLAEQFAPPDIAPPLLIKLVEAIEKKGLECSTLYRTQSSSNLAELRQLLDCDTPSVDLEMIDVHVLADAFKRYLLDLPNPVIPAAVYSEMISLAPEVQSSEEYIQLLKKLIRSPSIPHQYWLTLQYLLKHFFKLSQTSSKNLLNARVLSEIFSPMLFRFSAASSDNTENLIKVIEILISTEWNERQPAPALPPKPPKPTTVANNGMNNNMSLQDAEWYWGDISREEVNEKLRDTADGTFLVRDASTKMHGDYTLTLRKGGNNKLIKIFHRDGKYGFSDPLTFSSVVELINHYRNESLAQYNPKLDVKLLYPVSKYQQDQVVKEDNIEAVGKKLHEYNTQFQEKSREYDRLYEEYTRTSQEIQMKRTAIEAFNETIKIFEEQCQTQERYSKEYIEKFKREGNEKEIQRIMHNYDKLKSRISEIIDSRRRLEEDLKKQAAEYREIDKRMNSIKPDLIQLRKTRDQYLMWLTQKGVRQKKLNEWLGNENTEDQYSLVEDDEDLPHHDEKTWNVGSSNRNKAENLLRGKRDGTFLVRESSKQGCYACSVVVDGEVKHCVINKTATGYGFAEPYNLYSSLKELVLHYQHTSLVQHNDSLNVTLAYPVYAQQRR

| EC50 (Phospho-Akt(Ser473)) [nM] | IC50 (PI3Kα (p110α/p85α)) [nM] | Compound |
| --- | --- | --- |
| 100 to 1000 | 10 to 100 | Cc1ccccc1/C=C/C(=O)CCC(=O)N1CCN(Cc2cc3nc(-c4cccc5[nH]ncc45)nc(N4CCOCC4)c3s2)CC1 [II-a-138, (E)-1-(4-((2-(1H-indazol-4-yl)-4-morpholinothieno[3,2-d]pyrimidin-6-yl)methyl)piperazin-1-yl)-6-o-tolylhex-5-ene-1,4-dione] |
| 100 to 1000 | 10 to 100 | Cc1ccc(/C=C/C(=O)CCC(=O)N2CCN(Cc3cc4nc(-c5cccc6[nH]ncc56)nc(N5CCOCC5)c4s3)CC2)cc1 [II-a-139, (E)-1-(4-((2-(1H-indazol-4-yl)-4-morpholinothieno[3,2-d]pyrimidin-6-yl)methyl)piperazin-1-yl)-6-p-tolylhex-5-ene-1,4-dione] |
| 100 to 1000 | 10 to 100 | O=C(/C=C/c1ccccc1F)CCC(=O)N1CCN(Cc2cc3nc(-c4cccc5[nH]ncc45)nc(N4CCOCC4)c3s2)CC1 [II-a-140, (E)-1-(4-((2-(1H-indazol-4-yl)-4-morpholinothieno[3,2-d]pyrimidin-6-yl)methyl)piperazin-1-yl)-6-(2-fluorophenyl)hex-5-ene-1,4-dione] |
| 100 to 1000 | 10 to 100 | O=C(/C=C/c1ccncc1)CCC(=O)N1CCN(Cc2cc3nc(-c4cccc5[nH]ncc45)nc(N4CCOCC4)c3s2)CC1 [II-a-141, (E)-1-(4-((2-(1H-indazol-4-yl)-4-morpholinothieno[3,2-d]pyrimidin-6-yl)methyl)piperazin-1-yl)-6-(pyridin-4-yl)hex-5-ene-1,4-dione] |
| ≤ 10 | 100 to 1000 | COC/C=C(\C)C(=O)CCC(=O)N1CCN(Cc2cc3nc(-c4cccc5[nH]ncc45)nc(N4CCOCC4)c3s2)CC1 [II-a-161, (E)-1-(4-((2-(1H-indazol-4-yl)-4-morpholinothieno[3,2-d]pyrimidin-6-yl)methyl)piperazin-1-yl)-7-methoxy-5-methylhept-5-ene-1,4-dione] |
| ≤ 10 | 10 to 100 | CC(C)=CC(=O)CCCC(=O)N(C)Cc1cc2nc(-c3cnc(N)nc3)nc(N3CCOCC3)c2s1 [II-a-174, N-((2-(2-aminopyrimidin-5-yl)-4-morpholinothieno[3,2-d]pyrimidin-6-yl)methyl)-N,7-dimethyl-5-oxooct-6-enamide] |
| ≤ 10 | 10 to 100 | C=CC(=O)Nc1ccc(C(=O)N(C)Cc2cc3nc(-c4cnc(N)nc4)nc(N4CCOCC4)c3s2)cc1 [II-a-175, 4-acrylamido-N-((2-(2-aminopyrimidin-5-yl)-4-morpholinothieno[3,2-d]pyrimidin-6-yl)methyl)-N-methylbenzamide] |
| 10 to 100 | 100 to 1000 | C=CC(=O)Nc1ccc(CCNC(=O)c2cc3nc(-c4cnc(N)nc4)cc(N4CCOCC4)c3s2)cc1 [II-g-1, N-(4-acrylamidophenethyl)-5-(2-aminopyrimidin-5-yl)-7-morpholinothieno[3,2-b]pyridine-2-carboxamide] |
| 100 to 1000 | > 1000 | CCCC(=O)CCC(=O)N1CCN(Cc2cc3nc(-c4cccc5[nH]ncc45)nc(N4CCOCC4)c3s2)CC1 [II^R-a-36, 1-(4-((2-(1H-indazol-4-yl)-4-morpholinothieno[3,2-d]pyrimidin-6-yl)methyl)piperazin-1-yl)heptane-1,4-dione] |
| 10 to 100 | < 10 | C=C(CC)C(=O)CCC(=O)N1CCN(c2ccc(-c3ccnc4ccc(/C=C5\SC(=O)NC5=O)cc34)cn2)CC1 [V-20, (Z)-5-((4-(6-(4-(5-methylene-4-oxoheptanoyl)piperazin-1-yl)pyridin-3-yl)quinolin-6-yl)methylene)thiazolidine-2,4-dione] |
| 100 to 1000 | 100 to 1000 | C/C=C/C(=O)CCC(=O)N1CCC(n2ncc3c(N4CCOCC4)nc(-c4ccc(NC(=O)NC)cc4)nc32)CC1 [VII-7, (E)-1-methyl-3-(4-(4-morpholino-1-(1-(4-oxohept-5-enoyl)piperidin-4-yl)-1H-pyrazolo[3,4-d]pyrimidin-6-yl)phenyl)urea] |
